Test results published in PMC3744530, “CTA095, a Novel Etk and Src Dual Inhibitor, Induces Apoptosis in Prostate Cancer Cells and Overcomes Resistance to Src Inhibitors” (PLoS ONE, 2013).

Tests used:
PC3 cells [1] = assay: MTT growth inhibition assay; format: cell-based, human
Description: (§1) Cells were seeded in 96-well plates and cultured overnight, followed by treatment with 0.1% DMSO, as the vehicle control, and CTA095, at the indicated concentrations for 72 h. Growth inhibition was measured using a 3-(4,5-Dimethylthiazol-2-yl)-2,5-diphenyltetrazolium bromide (MTT) assay (Roche Diagnostic, Mannheim, Germany).
(§2) Figure 5 Growth Inhibition of CTA095 to LNCAP, CWR22Rv1, PC3 prostate cancer and normal prostate (RWPE1) cells. Cells were seeded at 5,000 cells/well in 96-well plate overnight and treated with CTA095 at the indicated concentrations. The cell viability was measured using MTT assay after 72 h. dots, mean; bars, standard deviation, n = 3.
Figure 9 CTA095 as a chemo sensitizer. Growth Inhibition of CTA095 and in combination with 10 μM chloroquine (CQ), or 2 ng/ml paclitaxel (PTX) to PC3 human prostate cancer cells. Cells were seeded at 5,000 cells/well in 96-well plate overnight and pretreated with the corresponding co-treatments for 1h, then treated with 2.5 μM CTA095. The cell viability was measured using MTT assay after 72 h. Columns, mean; bars, standard deviation, n = 3.

CWR22Rv1 cells = assay: MTT growth inhibition assay; format: cell-based; settings: Homo sapiens, 72 h
Description: as §1, §2

RWPE1 cells = assay: MTT growth inhibition assay; format: cell-based; settings: Homo sapiens, RWPE-1, RWPE1 normal prostate cells, 72 h
Description: as §1, §2

LNCAP cells = assay: MTT growth inhibition assay; format: cell-based; settings: Homo sapiens, 72 h
Description: as §1, §2

PC3-AZD20 cells = assay: MTT cell viability in Src inhibitor resistant cells; format: cell-based, human; settings: 72 h
Description: PC3 and PC3-AZD20 (PC3 cell resistant to 20 μM AZD0530, which is from AstraZeneca through MTA with Dr. Chris Evans) cells were seeded at 2000 cells/well in 96 well plates overnight. The cells were treated with AZD0530 or CTA095 at the indicated concentrations. Cell viability was measured using an MTT assay after 72 h.
Figure 11 CTA095 overcomes Src inhibitor resistance in prostate cancer cells. PC3 and PC3-AZD20 (PC3 cell resistant to 20 μM AZD0530) cells were seeded at 2000 cells/well in 96 well plates overnight. The cells were treated with AZD0530 or CTA095 at the indicated concentrations. Cell viability was measured using MTT assay after 72 h. Symbols, mean; bars, standard deviation, n = 3.

Btk = target: T1, Btk (Homo sapiens, UniProt Q06187); assay: Kinase inhibition assay (TLC; Kinase-Glo in Figure S2); format: biochemical
T1 construct: purchased Millipore Inc (Dundee, UK)
Description: Kinase inhibition was measured using thin-layer-chromatography (TLC). Briefly, purified kinases (20 nM), the corresponding substrate (500 µM, TSFYGRH for Etk, YIYGSFK for the other kinases), and CTA095 (0–10 µM) were incubated in a kinase reaction (100 mM Hepes, pH 7.4, 10 mM MnCl2, 10 mM MgCl2, 1 mM DTT) for 5 min, and the reaction was started by adding 5 μCi ^33P-labeled ATP. The reaction (10 µl) was incubated at room temperature for 1 h and was stopped by adding 10 μL H3PO4. The radioactivity of the peptide substrate was analyzed using TLC as previously described.
Having isolated a small molecule that inhibits Etk, the next logical step was to determine its specificity for this enzyme. To accomplish this, purified Etk, Btk, Src and Yes were incubated in a kinase reaction buffer with CTA095 (0–1 μM) in the presence of ^33P-labeled ATP and a peptide (YIYGSFK), previously shown to be an excellent substrate for both BTK and Src family kinases. The kinase activity was measured using TLC technique.
Supplementary file pone.0070910.s002.tif: Figure S2 Inhibition of Btk by CTA095. Purified Btk (20 nM), CTA095 (0–100 μM), ATP (500 μM) and the peptide substrate (YIYGSFK) were incubated in a kinase reaction. The kinase activity was measured using Kinase-Glo assay kit (Promega Inc.) following the manufacture's instruction. Columns, mean; bars, standard deviation, n = 3. […]

[2] = tested on: Myc mRNA in PC3-AZD20 cells; assay: Real-time PCR of Myc mRNA; format: cell-based, human; settings: PC3-AZD20, 10 μM, RT-PCR
Description: (§3) PC3-AZD20 cells were seeded at 10^6 cells/well in 6 well plates overnight. The cells were treated with AZD0530 or CTA095 at 10 μM. Apoptosis was analyzed using Annexin-V FITC apoptosis detection kit. The mRNA levels of Myc and BCL2 were measured using real-time PCR. pEtk, Etk, pSrc, Src, pStat3, Stat3, Myc and BCL2 levels were measured using the corresponding antibodies through a Western blot.
(§4) Figure 12 CTA095 induces apoptosis in Src inhibitor resistant prostate cancer cells through Myc and BCL2 inhibition. PC3-AZD20 (PC3 cell resistant to 20 μM AZD0530) cells were seeded at 10^6 cells/well in 6 well plates overnight. The cells were treated with AZD0530 or CTA095 at 10 μM. Apoptosis was analyzed using Annexin-V FITC apoptosis detection kit (A). The mRNA levels of Myc and BCL2 were measured using real-time PCR (B). pEtk, Etk, pSrc, Src, pStat3, Stat3, Myc and BCL2 levels were measured using the corresponding antibodies through Western blot (C). Columns, mean; bars, standard deviation, n = 3.

Solubility in water = format: physicochemical
PC3 cells [3] = assay: PC3 cell wound healing assay; format: cell-based, human; settings: 5 μM, after 48 h
Description: PC3 cells were grown in 6-well plate to 60% confluency. Then wounds were made using a tip and treated with CTA095 (0 and 5 μM). Cell migration (wound healing) was visualized under microscope at the indicated times.
Figure 8 Inhibition of tube formation and cell migration by CTA095. Inhibition of vascular tube formation of HUVEC endothelial cells (A) and inhibition of migration (wound healing) of PC3 human prostate cancer cells (B) by CTA095. (A) HUVEC cells were seed on mitrogel and treated with CTA095 (0 and 5 μM) for 6 h. Vascular tube formation was visualized using microscope. (B) PC3 cells were grown in 6-well plate to 60% confluency. Then wounds were made and treated with CTA095 (0 and 5 μM). Cell migration (wound healing) was visualized under microscope at the indicated times.

[4] = tested on: BCL2 mRNA in PC3-AZD20 cells; assay: Real-time PCR of BCL2 mRNA; format: cell-based, human; settings: PC3-AZD20, 10 μM, RT-PCR
Description: as §3, §4

T1 sequence (Q06187 whole entry): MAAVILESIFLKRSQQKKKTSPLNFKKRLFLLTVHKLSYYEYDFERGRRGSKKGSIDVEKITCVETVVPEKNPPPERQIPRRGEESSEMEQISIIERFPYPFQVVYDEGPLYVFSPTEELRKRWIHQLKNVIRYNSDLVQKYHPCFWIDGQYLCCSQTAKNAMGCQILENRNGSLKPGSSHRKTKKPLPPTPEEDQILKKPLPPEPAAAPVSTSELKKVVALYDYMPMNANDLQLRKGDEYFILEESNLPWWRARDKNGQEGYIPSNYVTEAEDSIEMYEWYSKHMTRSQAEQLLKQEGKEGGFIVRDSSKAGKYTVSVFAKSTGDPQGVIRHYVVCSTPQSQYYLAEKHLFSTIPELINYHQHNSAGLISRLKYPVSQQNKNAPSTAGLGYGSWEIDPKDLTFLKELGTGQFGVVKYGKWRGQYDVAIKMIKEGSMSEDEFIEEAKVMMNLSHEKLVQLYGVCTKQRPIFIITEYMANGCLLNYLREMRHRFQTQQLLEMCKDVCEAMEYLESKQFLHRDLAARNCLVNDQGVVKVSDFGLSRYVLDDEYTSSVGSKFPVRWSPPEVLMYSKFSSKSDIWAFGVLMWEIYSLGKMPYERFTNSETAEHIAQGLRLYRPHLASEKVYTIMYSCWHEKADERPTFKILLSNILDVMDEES

## O=c1[nH]c2cc3nc(-c4ccc5oc6ccccc6c5c4)n(CCCN4CCCCC4)c3cc2nc1-c1ccccc1 [CTA095, 2-(dibenzo[b,d]furan-2-yl)-7-phenyl-1-(3-(piperidin-1-yl)propyl)-1H-imidazo[4,5-g]quinoxalin-6(5H)-one]
PC3 cells [1]; Homo sapiens, PC-3, PC3, MTT, 72 h
  IC50: 4.5 µM
PC3 cells [1]; PC3, 2.5 μM CTA095 + CQ 10 μM, MTT, 72 h
  growth inhibition in combination with chloroquine (CQ): synergistic effect
PC3 cells [1]; PC3, 2.5 μM CTA095 + PTX 2 ng/ml, MTT, 72 h
  growth inhibition in combination with paclitaxel (PTX): synergistic effect
PC3 cells [1]; prostate cancer cells, co-treatment with rapamycin (RPM)
  combination with autophagy inducer RPM: synergizes
CWR22Rv1 cells
  IC50: 4.2 µM
RWPE1 cells
  IC50: 7.9 µM
LNCAP cells
  IC50: 3.8 µM
PC3-AZD20 cells
  IC50 in PC3-AZD20 cells: almost identical to that of the parental PC3 cells
  cell viability / sensitivity of PC3-AZD20 cells: highly sensitive
Btk
  IC50: > 10 µM
[2]
  Myc mRNA level: significantly down regulated
Solubility in water
  solubility in water: highly insoluble in water
PC3 cells [3]
  wound healing of PC3 cells: greatly inhibited
[4]
  BCL2 mRNA level: significantly down regulated
